Laboratory results: article PMC7139830, “Drug Conjugation Induced Modulation of Structural and Membrane Interaction Features of Cationic Cell-Permeable Peptides” (International Journal of Molecular Sciences, 2020)
Read-outs that look alike come from different tables or passages of the source.

Key:
[1] = Analytical RP-HPLC retention time on C-18 column as indicator of polarity; format: physicochemical; conditions: chromatographic, YMC-Pack ODS-A C18 (5 µm, 120 Å) 150 × 4.6 mm; gradient 5% B 2 min, 5%–100% B 20 min; A 0.1% TFA in water, B 0.1% TFA in acetonitrile/water 80/20; 1 mL/min; UV 220 nm
Excerpt: Cationic membrane active peptides and their INH-derivatives were synthesized in good yields, using previously described methods. Peptides were characterized with their monoisotopic molecular mass (M), retention time on a C-18 RP-HPLC column (Rt), estimated hydrophilicity values (H) and net charge (z) (see Table 1). Peptides are listed according to their retention times, which are the indicator of their polarity. […] This order of peptides’ polarity is almost equal to the relative hydrophilicity estimated from the amino acid composition. […] That might be the result of decreased charge due to INH coupling at the N-terminal, although the addition of INH molecule is expected to increase the polarity of the conjugate.
Purified peptides were analyzed by RP-HPLC, on an analytical C-18 column, using gradient elution with the abovementioned eluent A and B (flow rate was 1 mL/min, UV detection at λ = 220 nm). Molecular mass of the peptides was determined on a Thermo Scientific Q Exactive™ Focus Hybrid Quadrupole-Orbitrap™ Mass Spectrometer (ThermoFisher Scientific, Waltham, MA, USA).

[2] = AFM imaging of penetrated DPPC lipid layer; format: physicochemical; conditions: DPPC monolayer, AFM cross-section profiles
Excerpt: At the end of the membrane affinity measurements, the penetrated monolayers were transferred to a previously cleaned cover glass, to study the structural changes of the membranes by atomic force microscopy (Figure 5 and Figure 6). The surface of the original DPPC and mixed DPPC+mycolic acid monolayer is rather smooth, with a morphology described by typical roughness values presented in Table 2. (Ra is the average deviation of all points from a mean level over the evaluation area. Rq (RMS) is the root mean square roughness, while Rz is the average absolute value of the five highest peaks and the five lowest valleys over the evaluation area, being sensitive to positive or negative extremes of the image.) Well-defined homogenous lipid islands are formed by the ordered lipid molecules in equilibrium with the less-oriented film with smaller surface density as expected from the surface pressure–area isotherm. Comparing to this, the morphology of the penetrated monolayers was changed. The 3D images provide a visual impression on the surface, while the cross-section profiles allow the measurement of the height differences. […] This morphological change can also be expressed by the roughness factors determined by analyzing the AFM images (Table 2).
Penetrated Langmuir monolayers were transferred to a previously cleaned hydrophilic cover glass for atomic microscopy measurements. […]

[3] = test system: Mycobacterium tuberculosis H37Rv in infected MonoMac-6 human monocytes; format: cell-based
[4] = AFM imaging of penetrated DPPC+mycolic acid lipid layer; format: physicochemical; conditions: DPPC+mycolic acid film, AFM cross-section profiles
[5] = test system: EBC-1 cells; format: cell-based, human

Substance: CM15
- Rt, retention time on C-18 RP-HPLC column (indicator of polarity) [1]: 13.7

Substance: GIGKFLHSAKKFGKAFVGEIMNS [Magainin II, antimicrobial peptide isolated from amphibians]
- Rt, retention time on C-18 RP-HPLC column (indicator of polarity) [1]: 12.8

Substance: INH-GIGKFLHSAKKFGKAFVGEIMNS [INH–Magainin II, isoniazid conjugated to the N-terminus of Magainin II via glyoxylic acid linker]
- Rt, retention time on C-18 RP-HPLC column (indicator of polarity) [1]: 13.3

Substance: INH-KRLFKKLLFSLRKY [INH–Dhvar4, isoniazid conjugated to the N-terminus of Dhvar4 via glyoxylic acid linker]
- Rt, retention time on C-18 RP-HPLC column (indicator of polarity) [1]: 12.8

Substance: INH-RAGLQFPVGRVHRLLRK [INH–Buforin II (5–21), isoniazid conjugated to the N-terminus of Buforin II (5–21) via glyoxylic acid linker]
- Rt, retention time on C-18 RP-HPLC column (indicator of polarity) [1]: 11.0

Substance: INH-RQIKIWFQNRRMKWKK [INH–Penetratin, isoniazid conjugated to the N-terminus of Penetratin via glyoxylic acid linker]
- Height of aggregates / protrusions in penetrated layer [2]: 1–3 nm
- Intracellular antitubercular activity [3]: efficient candidate against intracellular Mycobacterium tuberculosis
- Height of aggregates / vertical deviation in penetrated layer [4]: exceeding 3 nm
- Rt, retention time on C-18 RP-HPLC column (indicator of polarity) [1]: 11.5

Substance: INH-TKPKGTKPKGTKPKGTKPKG [INH–OT20, isoniazid conjugated to the N-terminus of OT20 via glyoxylic acid linker]
- Rt, retention time on C-18 RP-HPLC column (indicator of polarity) [1]: 7.0

Substance: KRLFKKLLFSLRKY [Dhvar4, synthetic derivative of Histatin, a salivary histidine-rich cationic AMP]
- Rt, retention time on C-18 RP-HPLC column (indicator of polarity) [1]: 11.8

Substance: RAGLQFPVGRVHRLLRK [Buforin II (5–21), antimicrobial peptide isolated from amphibians]
- Rt, retention time on C-18 RP-HPLC column (indicator of polarity) [1]: 10.9

Substance: RQIKIWFQNRRMKWKK [Penetratin, cell-penetrating peptide]
- Subcellular localization ([5]; Cf-labeled peptides, 60 min incubation, EBC-1 cells, confocal microscopy): diffused intracellular distribution
- Rt, retention time on C-18 RP-HPLC column (indicator of polarity) [1]: 10.9

Substance: TKPKGTKPKGTKPKGTKPKG [OT20, synthetic oligomer of Tuftsin, cationic carrier peptide]
- Rt, retention time on C-18 RP-HPLC column (indicator of polarity) [1]: 6.7

Substance: Transportan
- Subcellular localization [5]: mostly vesicular localization
